We go through two molecules from patent US20240327372A1, “PREPARATION OF PHENE[…] […] STEREOISOMERS THEREOF AND PRECURSORS THEREOF” (priority 2022, published 2024).

SMILES strings stand for the structures.

Assay [1] relates to rat forced swim test (FST). Nature of the assay: Rat forced swim test (FST). Format: in vivo. As to conditions: single dose 10 mg/kg IP, 30 min before testing. The procedure:
All FST studies are performed and scored by an experimenter blind to treatment group and according to standard protocols. Briefly, rats are placed in a circular plexiglass container filled with water. Water temperature is maintained at 22-25° C. and changed for every animal. Day 1 (Training) consists of a 15 min acclimation trial, and Day 2 (Testing, 24 h later) consists of the 5 min test. A time sampling procedure is employed where animals are observed every 5 seconds for the duration of the test session (60 counts or 5 minutes) and scored for immobility (defined as the failure to struggle), swimming (defined as a circular movement around the tank), or climbing (defined as an upwards escape behavior). Data are expressed as the percent of the testing session (e.g., the number of immobility counts divided by 60). A p-value less than 0.05 indicates statistical significance after typical statistical analyses (e.g., unpaired t-test or ANOVA).
To determine that the prodrug and/or enantiomer has an antidepressant-like effect and to compare it to methylone, rats are treated with each compound 30 min prior to testing. Additional tests are run 24, 72, 168 hours post-dose or longer.
Racemic methylone (10 mg/kg, IP) has a maximal antidepressant-like effect in the rat forced swim test (FST), reducing immobility by nearly 100% compared to vehicle treated controls. To determine whether one enantiomer of methylone could mimic the robust antidepressant-like effect of racemic methylone, rats were treated with a single dose of racemic methylone, (R)-methylone, (S)-methylone (all 10 mg/kg, IP) or vehicle 30 min before testing in the FST. […] Therefore, all of the activity of methylone appears to be driven by the activity of one enantiomer ((S)-methylone).

The target in assay [2] is serotonin transporter (SERT) (Rattus norvegicus (Rat), UniProt P31652). Nature of the assay: Competition radioligand binding, [3H]Citalopram, rat brain membranes. As to conditions: for IC50 / Ki: 5-HT transporter; for Ki: Cheng-Prusoff. The text has this:
(§1) Rat brain (Sprague Dawley, 200-250 g) synaptosomes were isolated from midbrain and hindbrain for serotonin transporter assays, striatum for dopamine transporter assays, and hippocampus plus overlying occipital cortex for norepinephrine transporter assays. Radioligands used were: [^3H]Citalopram 81.4 Ci/mmol (PerkinElmer NET1039250UC; Lot No. 2960876). [^3H]WIN35428 82.8 Ci/mmol (PerkinElmer NET1033250UC; Lot No. 2891473). [^3H]Nisoxetine 79.2 Ci/mmol (PerkinElmer NET1084250UC; Lot No. 2970324). Non-specific compounds used were: Citalopram (Tocris Bioscience 1427). JHW007 (Tocris Bioscience 4351). Nomifensine (Abcam ab146004). Test Compounds for the study were: racemic methylone HCl; (R)-methylone HCl; (S)-methylone HCl.
(§2) For membrane preparations, rat brains were dissected, tissue was added to ice-cold lysis buffer (50 mM Tris HCl; 5 mM MgCl2; 5 mM EDTA; protease inhibitor cocktail) and homogenized. The homogenate was centrifuged at 100×g for 2 minutes and the supernatant divided into polypropylene Eppendorf tubes. The supernatants were centrifuged at 17,000×g for 10 minutes at 4° C. to re-pellet the cell lysate. The pellet was resuspended in fresh wash buffer (50 mM Tris-HCl; 5 mM MgCl2; 5 mM EDTA) and centrifuged a third time at 17,000×g for 10 minutes at 4° C. The pellet was resuspended in wash buffer containing 10% sucrose as a cryoprotectant, divided into aliquots (0.3 mL) and stored at −80° C. A sample of the homogenate was analyzed for protein content using the MERCK® BCA assay. On the day of the assay, the membrane preparation was thawed and the pellet resuspended in final assay buffer.
(§3) Competition binding assays were carried out in 96-well polypropylene plates in a final volume of 250 μL per well. To each well was added 150 μL membranes, 50 μL of test compound, non-specific compound or buffer, and 50 μL radioligand solution in buffer. The plate was incubated at 30° C. for 90 minutes with gentle agitation. The incubation was stopped by vacuum filtration onto presoaked (wash buffer with PEI) GF/C filters using a 96-well FILTERMATE™ harvester, followed by 5 washes with ice-cold wash buffer. Filters were then dried under a warm air stream, sealed in polyethylene, scintillation cocktail added, and the radioactivity counted in a WALLAC® TriLux 1450 MicroBeta counter. For each concentration of drug, non-specific binding was subtracted from total binding to give specific binding. Data was fitted using the non-linear curve fitting routines in PRISM® (Graphpad Software Inc) to determine IC50. Ki was subsequently calculated using the ChengPrusoff equation.

The target in assay [3] is norepinephrine transporter (NET). Nature of the assay: Competition radioligand binding, [3H]Nisoxetine, rat brain membranes. As to conditions: for IC50 / Ki: NE transporter; for Ki: Cheng-Prusoff.
Text: as §1, §2, §3

Another assay has as its target hKCNQ1/hminK (Homo sapiens (Human), UniProt P51787). Nature of the assay: hKCNQ1/hminK Potassium Channel Assay, Qube APC. Format: cell-based. As to conditions: KCNQ1/mink, Antagonist mode, test compound. The protocol:
Electrophysiological assays were conducted to profile three compounds ((R)-methylone, (S)-methylone, or racemic methylone) for activities on the ion channel targets specified below using the Qube electrophysiological platform. Where presented, IC50 values were determined by a non-linear, least squares regression analysis. Reference standards were run as an integral part of each assay to ensure the validity of the results obtained.
Ion Channels tested were Eurofins Panel Part Number: CPROFullQB2DR Voltage-Gated Sodium: HEK-Nav1.5 (Peak), HEK-Nav1.5 (Late, Antagonist) Voltage-Gated Potassium: HEK-Kv4.3/KChIP2, CHO-hERG, CHO-KCNQ1/minK Voltage-Gated Calcium: HEK-Cav1.2 Inward-Rectifying Voltage-Gated Potassium: HEK-Kir2.1.
hKCNQ1/hminK Potassium Channel Assay—Qube APC After whole cell configuration is achieved, the cells are held at −80 mV. KCNQ1/minK currents are evoked by a 1000 ms pulse from −80 mV to 60 mV followed by a ramp from 60 mV to −80 mV over 115 ms with the outward peak currents measured upon depolarization of the cell membrane. This paradigm is delivered once every 15 s to monitor the current amplitude.

With `CN[C@H](C)C(=O)c1ccc2c(c1)OCO2` [(R)-methylone], in assay [1], the “Antidepressant-like effect in the FST” value is recorded as “no effect”. Moreover, in assay [2], the IC50 (in general, the midpoint of a concentration-inhibition curve) amounted to 34.7 µM and the inhibition constant Ki (as a rule, the equilibrium dissociation constant of an inhibitor or competing ligand from its target) was determined as 21.1 µM. In addition, the “Potency relative to racemic methylone” value in assay [2] (SERT binding) is given as “approximately three-fold less potent”. In assay [3], this molecule had a half-inhibitory concentration (IC50) of 4.67 µM and a Ki of 2.19 µM. At hKCNQ1/hminK, the “Estimated IC50” value is on record as “N/C (N/C indicates observed mean inhibition was <25%)”.
`CN[C@@H](C)C(=O)c1ccc2c(c1)OCO2` [(S)-methylone]: the “Antidepressant-like effect in the FST” value in assay [1] is “mimicked the rapid and robust antidepressant-like effect of racemic methylone”. In assay [2], this molecule displayed an IC50 of 6.52 µM and a Ki of 3.95 µM. In assay [3], this molecule returned an IC50 of 7.12 µM and an inhibition constant (Ki) of 3.37 µM. The “Potency relative to racemic methylone” value in assay [3] (NET binding) is given as “nearly two-fold less potent”. Moreover, the “Estimated IC50” value on hKCNQ1/hminK is reported as “N/C (N/C indicates observed mean inhibition was <25%)”.
